Experimental findings from paper PMC9440615 (Biochemical pharmacology, 2020) are described below.

Where a name gives a salt, the structure may show the parent alone. Read-outs that look alike come from different tables or passages of the source.

Data set [1] has as its target T1, hPXR (Homo sapiens, UniProt O75469).
T1 sequence (O75469 1-434): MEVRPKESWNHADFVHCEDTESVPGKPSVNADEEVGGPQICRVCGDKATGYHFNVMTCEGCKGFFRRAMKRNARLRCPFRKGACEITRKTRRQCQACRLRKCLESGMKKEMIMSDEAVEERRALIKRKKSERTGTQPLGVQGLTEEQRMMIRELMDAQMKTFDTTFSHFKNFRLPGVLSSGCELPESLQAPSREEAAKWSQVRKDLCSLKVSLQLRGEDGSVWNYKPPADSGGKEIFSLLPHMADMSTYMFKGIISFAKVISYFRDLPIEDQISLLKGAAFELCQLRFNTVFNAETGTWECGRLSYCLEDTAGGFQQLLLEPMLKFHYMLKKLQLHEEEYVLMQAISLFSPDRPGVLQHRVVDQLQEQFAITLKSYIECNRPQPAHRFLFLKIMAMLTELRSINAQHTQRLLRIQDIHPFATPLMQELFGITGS

Data set [2] has as its system CYP3A4 mRNA expression. The data set is described as follows: CYP3A4 mRNA induction in HepaRG cells. To be noted: 24 h treatment, Fig. 2A; for CYP3A4 mRNA induction (result in words): compared with vehicle or RIF 10 μM.
Data set [3] deals with CYP3A4 mRNA expression. The data set is described as follows: CYP3A4 mRNA induction in HepaRG-PXR-KO cells versus HepaRG cells. The data set is classed as cell-based, human. The settings on record: HepaRG-PXR-KO vs HepaRG, 24 h, Fig. 5A.
Data set [4] deals with CYP2B6 mRNA expression. The data set is described as follows: CYP2B6 mRNA induction in HepaRG-PXR-KO cells versus HepaRG cells. The data set is classed as cell-based, human. To be noted: HepaRG-PXR-KO vs HepaRG, 24 h, Fig. 5B.
The target of data set [5] is T1, hPXR. The data set is described as follows: cell-based.
Data set [6] has as its system CYP3A4 mRNA expression.
Where [7] appears, read: qHTS primary screen, hPXR-Luc HepG2, 24 h, relative to positive control RIF.
The mark [8] stands for this setting: PXR Primary EC50, qHTS primary screen, hPXR-Luc HepG2, 24 h.

For `Cc1nc(Nc2ncc(C(=O)Nc3c(C)cccc3Cl)s2)cc(N2CCN(CCO)CC2)n1` [Dasatinib], in data set [1], the “PXR Follow-up Efficacy” value was 0.6 ± 0.07 [127 ± 12.0] % and the “PXR Primary Efficacy” value was 0.3 ± 0.5 [84.6 ± 22.2] %.
In the case of `CCOC(=O)C1=C(C)NC(C)=C(C(=O)OCC)C1c1ccccc1/C=C/C(=O)OC(C)(C)C` [Lacidipine], in data set [1], the “PXR Follow-up Efficacy” value was 10.4 ± 4.4 [115 ± 15.0] % and the “PXR Primary Efficacy” value is 5.6 ± 5.5 [155 ± 70.5] %. The “CYP3A4 mRNA induction (result in words)” value in data set [2] is “greater extent than the positive control”.
As to `Clc1ccc(-c2nc3sccn3c2C=NOCc2ccc(Cl)c(Cl)c2)cc1` [CITCO, 6-(4-Chlorophenyl)imidazo[2,1–b][1, 3]thiazole-5-carbaldehyde O-(3,4-dichlorobenzyl)oxime], in data set [3], the “Change of CYP3A4 mRNA induction in PXR-KO cells” value is given as “lack a significant decrease”. Moreover, in data set [4], the “Change of CYP2B6 mRNA expression in PXR-KO cells” value is reported as “significantly decreased”.
The EC50 is the concentration needed to bring the measured effect to its halfway point. Turning to `CCCN(CCC)c1c([N+](=O)[O-])cc(C(F)(F)F)c(N)c1[N+](=O)[O-]` [Prodiamine], in data set [1], the “PXR Follow-up Efficacy” value was 8.5 ± 0.9 [108 ± 6.61] % and the “PXR Primary Efficacy” value was 4.7 ± 0.8 [168 ± 31.0] %. A half-maximal effect in data set [5] (PXR Primary EC50) (EC50) was put at 4.7 µM. The same compound yielded an EC50 in data set [5] ([…]) of 8.5 µM.
Regarding `O[C@@H](COc1cccc2ncccc12)CN1CCN([C@@H]2c3ccccc3[C@@H]3[C@H](c4ccccc42)C3(F)F)CC1` [Zosuquidar trihydrochloride], the “PXR Primary Efficacy” value in data set [1] (setting [7]) is listed as 188 ± 41.7%. In addition, the EC50 in data set [5] was 1.6 ± 0.3 µM; in data set [5] (setting [8]) it was 3.2 ± 1.7 µM.
Regarding `CCN1C(=O)c2ccccc2C1Nc1ccc(OCCN2CCCCC2)cc1` (stereo not drawn) [Etomidoline], the “PXR Primary Efficacy” value in data set [1] (setting [7]) was 175 ± 74.6%. Besides, the EC50 in data set [5] stood at 3.2 ± 0.4 µM; in data set [5] (setting [8]), 2.6 ± 1.3 µM. The “CYP3A4 mRNA induction (result in words)” value in data set [2] was “greater extent than the positive control”.
As for `CCOc1cc(N)c(Cl)cc1C(=O)NCC1CN(Cc2ccc(F)cc2)CCO1` (stereo not drawn) [Mosapride citrate], the “PXR Primary Efficacy” value in data set [1] (setting [7]) is listed as 222 ± 59.5%. The EC50 in data set [5] was determined as 10.8 ± 1.2 µM; in data set [5] (setting [8]) it was 8.8 ± 3.3 µM.
`Cc1oc2c(NC(=O)c3c(Cl)cccc3Cl)cccc2c1C(C)(C)O` [FR167356]: the EC50 in data set [1] was 7.1 ± 1.2 µM; in data set [1] (read-out: PXR Primary EC50, qHTS primary screen, hPXR-Luc HepG2, 24 h), 3 ± 2.2 µM. In addition, in data set [1] (setting [7]), the “PXR Primary Efficacy” value turned out to be 178 ± 9.77%.
Turning to `COC(=O)c1c(C(F)F)nc(C(F)(F)F)c(C2=NCCS2)c1CC(C)C` [Thiazopyr], the “PXR Follow-up Efficacy” value in data set [1] is 4.6 ± 0.3 [102 ± 8.66] %. The “PXR Primary Efficacy” value in data set [1] is 1.2 ± 1.0 [108 ± 37.9] %. Moreover, in data set [6], the “CYP3A4 mRNA induction (result in words)” value is on record as “greater extent than the positive control”. In addition, the EC50 in data set [5] (PXR Primary EC50) is 1.2 µM; in data set [5] ([…]), 4.6 µM.
With `COc1cccc(N(C)C(=S)Oc2ccc3c(c2)CCCC3)n1` [Liranaftate], in data set [1], the “PXR Follow-up Efficacy” value is 4.5 ± 0.7 [144 ± 16.0] % and the “PXR Primary Efficacy” value was 5.5 ± 2.6 [148 ± 42.6] %. For the same compound, the “CYP3A4 mRNA induction (result in words)” value in data set [6] was “greater extent than the positive control”.
For the compound `O=C(CCCN1CCC2(CC1)C(=O)NCN2c1ccccc1)c1ccc(F)cc1` [Spiperone], in data set [1], the “PXR Follow-up Efficacy” value is 6.2 ± 3.3 [345 ± 225] % and the “PXR Primary Efficacy” value is 3.7 ± 0.4 [341 ± 31.7] %. In addition, in data set [2], the “CYP3A4 mRNA induction (fold increase)” value is more than 5 fold and the “CYP3A4 mRNA induction (result in words)” value is “not statistically significant”.
On to `CCCCOCN(C(=O)CCl)c1c(CC)cccc1CC` [Butachlor], for which the “PXR Follow-up Efficacy” value in data set [1] stood at 107 ± 26.0%. In data set [1], the “PXR Primary Efficacy” value is 119 ± 49.2%. In addition, in data set [6] (human), the “CYP3A4 mRNA induction (fold increase)” value is more than 5 fold. The results for the EC50 in data set [5] and in data set [5] (setting [8]) were 6.49 ± 2.9 µM and 4 ± 4 µM, respectively.
With `CC[C@H]1CN2CCc3cc(OC)c(OC)cc3[C@@H]2C[C@@H]1C[C@H]1NCCc2cc(OC)c(OC)cc21` [Emetine], in data set [1], the “PXR Follow-up Efficacy” value is 0.1 ± 0.01 [119 ± 8.89] % and the “PXR Primary Efficacy” value is 0.05 ± 0.04 [211 ± 74.0] %.
`O=C(CCCCCCC(=O)Nc1ccccc1)NO` [Vorinostat (SAHA), Vorinostat]: in data set [1], the “PXR Primary Efficacy” value is 7.8 ± 3.8 [182 ± 46.9] %.
For the compound `Nc1nc(Cl)nc2c1ncn2[C@@H]1O[C@H](CO)[C@@H](O)[C@@H]1F` [Clofarabine], in data set [1], the “PXR Follow-up Efficacy” value was 3.3 ± 0.4 [214 ± 13.9] % and the “PXR Primary Efficacy” value is 0.7 ± 0.2 [112 ± 34.6] %.
For the compound `Cc1cccc(N(C)C(=S)Oc2ccc3c(c2)CCC3)c1` [Tolindate], the “PXR Primary Efficacy” value in data set [1] (setting [7]) was found to be 201 ± 37.5%. Moreover, the EC50 in data set [5] was determined as 8.7 ± 1.5 µM; in data set [5] (setting [8]) it was 8.3 ± 2.3 µM.
For `CC(C)C[C@H](NC(=O)[C@H](CCc1ccccc1)NC(=O)CN1CCOCC1)C(=O)N[C@@H](Cc1ccccc1)C(=O)N[C@@H](CC(C)C)C(=O)[C@@]1(C)CO1` [Carfilzomib], in data set [1] (setting [7]), the “PXR Primary Efficacy” value stood at 110 ± 10.3%. Also, the values for the EC50 in data set [5] and in data set [5] (setting [8]) were 0.1 ± 0.02 µM and 0.04 ± 0.024 µM, respectively.
Consider `N=C(Nc1ccccc1)Nc1ccccc1` [1,3-Diphenylguanidine], for which the “PXR Follow-up Efficacy” value in data set [1] was 2.7 ± 0.3 [393 ± 128] %. In addition, the “PXR Primary Efficacy” value in data set [1] is 8.0 ± 13.7 [461 ± 143] %. In addition, the EC50 in data set [5] (PXR Primary EC50) was 8 µM; in data set [5] ([…]), 2.7 µM.
For `COC(=O)C1=C(C)NC(C)=C(C(=O)OC2CCCN(Cc3ccccc3)C2)C1c1cccc([N+](=O)[O-])c1` (racemic) [rac Benidipine hydrochloride], in data set [1], the “PXR Follow-up Efficacy” value was 4.6 ± 2.3 [105 ± 14.7] % and the “PXR Primary Efficacy” value was 5.6 ± 5.4 [141 ± 33.3] %.
Turning to `CC(C)C[C@H](NC(=O)[C@H](Cc1ccccc1)NC(=O)c1cnccn1)B(O)O` [Bortezomib], in data set [1], the “PXR Follow-up Efficacy” value is 0.02 ± 0.004 [83.8 ± 12.8] % and the “PXR Primary Efficacy” value was 0.008 ± 0.0005 [97.7 ± 17.9] %.
